For one cell line, relative viability results are on record in the supplement of paper PMC10307832.

Experiment in all cases: relative viability (nuclei count vs DMSO), 5 days (fraction); higher = more cells survive
Compound in assay [1]: CCC1=CN=CN=C1N2CCN(CC2)CC3=NC4=C(N3)C=C(C=C4)C(F)(F)F + CC(C)C[C@H](NC(=O)[C@H](Cc1ccccc1)NC(=O)c1cnccn1)B(O)O [Bortezomib] (partner 0.002 µM)
The method in brief:
(§1)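 Lung cancer cell lines were seeded in 1536-well plates and dosed by pin tool the next day, with either a single drug or a fixed anchor-drug dose combined with five library-drug doses (not always all listed) spaced in √10 steps. Five days later, one step fixed the cells and stained their nuclei (final 0.05% Triton X-100, 1% formaldehyde, 1 ug/ml Hoechst), and nuclei were counted on 4× images. Relative viability is the nuclei count in treated wells divided by the count in vehicle wells, and each value is the median of duplicate plates.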

Compound in assay [2]: CCC1=CN=CN=C1N2CCN(CC2)CC3=NC4=C(N3)C=C(C=C4)C(F)(F)F + CCNC(=O)c1noc(-c2cc(C(C)C)c(O)cc2O)c1-c1ccc(CN2CCOCC2)cc1 [Luminespib] (partner 0.01 µM)
The gist of the method:
as §1

Compound in assay [3]: N=C1NC(=O)/C(=C/c2ccc(O)cc2)S1 [Mirin] + C[C@]1(O)C[C@@H](c2nc(-c3ccc4ccc(-c5ccccc5)nc4c3)c3c(N)nccn32)C1 [Linsitinib] (partner 1 µM)
The gist of the method: as §1

Compound in assay [4]: N=C1NC(=O)/C(=C/c2ccc(O)cc2)S1 [Mirin] + Cc1nc(Nc2ncc(C(=O)Nc3c(C)cccc3Cl)s2)cc(N2CCN(CCO)CC2)n1 [Dasatinib] (partner 0.075 µM)
The gist of the method:
as §1

For UMC-11, the relative viability in assay [1] (first compound 0.04 µM) is 0.703; in assay [1] (first compound 0.1265 µM), 0.672; in assay [1] (first compound 0.4 µM) it was 0.554; in assay [1] (first compound 1.265 µM), 0.701; in assay [1] (first compound 4 µM), 0.707; in assay [2] (first compound 0.04 µM) it was 0.974. The relative viability in assay [2] (first compound 0.1265 µM) amounted to 1.05; in assay [2] (first compound 0.4 µM), 0.917; in assay [2] (first compound 1.265 µM), 0.902; in assay [2] (first compound 4 µM) it was 0.746; in assay [3] (first compound 0.25 µM) it was 1; in assay [3] (first compound 0.7906 µM), 0.963. In addition, the relative viability is 1.07 in assay [3] (first compound 2.5 µM); 0.803 in assay [3] (first compound 7.906 µM); 0.66 in assay [3] (first compound 25 µM); 0.45 in assay [4] (first compound 0.25 µM); 0.424 in assay [4] (first compound 0.7906 µM); 0.493 in assay [4] (first compound 2.5 µM). In addition, the figures for the relative viability in assay [4] (first compound 7.906 µM) and in assay [4] (first compound 25 µM) were 0.415 and 0.438, respectively.
